Values of other authors, collected in patent publication US20090320148A1, “OXYLIPINS FROM STEARIDONIC ACID AND GAMMA-LINOLENIC ACID AND METHODS OF MAKING AND USING THE SAME” (MARTEK BIOSCIENCES CORPORATION, priority 2006, published 2009).

Key:
[1] = tested on: IL-1β
[2] = tested on: cell migration; conditions: comparison with the DHA-derived oxylipin

Compound | secretion of the pro-inflammatory cytokine IL-1β [1] | reduction of IL-1β secretion compared with DHA oxylipin derivative and indomethacin ([1]; comparison with DHA oxylipin derivative and indomethacin) | potency for reduction in IL-1β secretion ([1]; comparison with the DHA oxylipin) | potency for inhibiting cell migration [2]
10,17-dihydroxy DPAn-6 | significantly reduced | significantly larger than with that produced by either the DHA oxylipin derivative or the general anti-inflammatory agent, indomethacin | more potent than the DHA oxylipin | 
CCCCCC(O)/C=C/C=C\C/C=C\C/C=C\C/C=C\CCC(=O)O (centres unmarked) [17-hydroxy DPAn-6] | significantly reduced |  |  | more potent than the DHA-derived oxylipin
